# Patent publication US7713994B2 (Wyeth LLC, priority 2005, dated 2010)
# Like-named read-outs stand apart in the source and are kept apart here.
# Tests used:
# [1] = system: HCT-116; experiment: Cytotoxicity assay (SRB), HCT-116; assay type: cell-based; details: HCT116 cells, SRB, read-out: In Vitro Cellular Activity IC50 HCT116
# Procedure, shortened: (§1)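 Cells grown in RPMI 1640 with 5% FBS were treated with compound for three days (HCT-116, LoVo, MCF-7) or six days (BT474). Viable cell mass was quantified by sulforhodamine B staining of TCA-fixed protein and read at 540 nm.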
# [2] = system: LoVo; experiment: Cytotoxicity assay (SRB), LoVo; assay type: cell-based; details: LoVo cells, SRB, read-out: In Vitro Cellular Activity IC50 LOVO
# Procedure, shortened: as §1
# [3] = molecular target: T1, cyclin E/CDK2 enzyme (Homo sapiens, UniProt P24941); experiment: CDK2 ELISA kinase assay (phospho-Rb ser 795 detection); assay type: biochemical
# T1 construct: made in house; host or cells: Sf9 insect cells, recombinant baculovirus
# Procedure, shortened: (§2)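 GST-Rb C-terminal fragment coated on plates; partially purified Sf9-expressed cyclin D1/CDK4, cyclin E/CDK2 or cyclin B/CDK1 with 200 μM ATP, pH 7.5 HEPES/MgCl2 buffer, 1 h at 30 °C; screen compound final 10 μg/ml. Phospho-Rb Ser795 detected by antibody ELISA (TMB, A450); % of control, IC50 from background-subtracted inhibition curves.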
# [4] = molecular target: T2, cyclin D1/cdk 4 enzyme (Homo sapiens, UniProt P11802); experiment: CDK4 ELISA kinase assay (phospho-Rb ser 795 detection); assay type: biochemical
# T2 construct: made in house; host or cells: Sf9 insect cells, recombinant baculovirus
# Procedure, shortened: as §2
# [5] = system: BT474; experiment: Cytotoxicity assay (SRB), BT474; assay type: cell-based
# Procedure, shortened: as §1
# [6] = molecular target: T3, cyclin B/CDK1 enzyme (Homo sapiens, UniProt P06493); experiment: CDK1 ELISA kinase assay (phospho-Rb ser 795 detection); assay type: biochemical
# T3 construct: purchased New England BioLabs; host or cells: Sf9 insect cells, recombinant baculovirus
# Procedure, shortened: as §2
# [7] = system: MCF-7; experiment: Cytotoxicity assay (SRB), MCF-7; assay type: cell-based; details: MCF-7 cells, SRB, read-out: In Vitro Cellular Activity IC50 MCF-7
# Procedure, shortened: as §1
# [8] = Homo sapiens, HCT-116, 72 h, 3 days
# [9] = Homo sapiens, LoVo, 72 h, 3 days
# [10] = In Vitro Enzyme Assay, cyclin E/CDK2, read-out: CDK2 IC50
# [11] = In Vitro Enzyme Assay, cyclin D1/cdk 4, read-out: CDK4 IC50
# [12] = Homo sapiens, BT-474, 144 h, BT474 cells, 6 days, SRB; read-out: In Vitro Cellular Activity IC50 BT474
# [13] = In Vitro Enzyme Assay, cyclin B/CDK1, read-out: CDK1 IC50
# [14] = Homo sapiens, MCF7, 72 h, 3 days
# [15] = Homo sapiens, HCT-116, 72 h, three days
# [16] = Homo sapiens, LoVo, 72 h, three days
# [17] = In Vitro Enzyme Assays, read-out: CDK2 IC50
# [18] = In Vitro Enzyme Assays, 200 μM ATP, read-out: CDK4 IC50
# [19] = Homo sapiens, BT-474, 144 h, BT474 cells, SRB, 6 days; read-out: In Vitro Cellular Activity IC50 BT474
# [20] = In Vitro Enzyme Assays, read-out: CDK1 IC50
# [21] = Homo sapiens, MCF7, 72 h, three days
# T2 sequence (P11802 whole entry, species assumed): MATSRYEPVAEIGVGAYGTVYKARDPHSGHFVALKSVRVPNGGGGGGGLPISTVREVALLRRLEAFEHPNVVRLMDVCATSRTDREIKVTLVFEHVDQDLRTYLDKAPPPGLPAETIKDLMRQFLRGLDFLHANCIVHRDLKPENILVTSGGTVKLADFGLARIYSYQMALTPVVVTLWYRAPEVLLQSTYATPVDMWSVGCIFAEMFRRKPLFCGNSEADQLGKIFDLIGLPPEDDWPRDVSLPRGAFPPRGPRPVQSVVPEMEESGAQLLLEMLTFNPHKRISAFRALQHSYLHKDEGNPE
# T2 sequence (P24385 whole entry partner, species assumed): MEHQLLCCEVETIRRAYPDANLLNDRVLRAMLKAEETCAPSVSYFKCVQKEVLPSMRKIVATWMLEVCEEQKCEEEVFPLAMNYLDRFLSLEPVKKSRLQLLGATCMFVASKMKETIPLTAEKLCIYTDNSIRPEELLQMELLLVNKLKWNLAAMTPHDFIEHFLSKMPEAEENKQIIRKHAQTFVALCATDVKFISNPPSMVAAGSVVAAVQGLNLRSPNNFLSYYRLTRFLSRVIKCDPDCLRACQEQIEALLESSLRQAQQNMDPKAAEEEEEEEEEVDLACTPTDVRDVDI
# T3 sequence (P06493 whole entry): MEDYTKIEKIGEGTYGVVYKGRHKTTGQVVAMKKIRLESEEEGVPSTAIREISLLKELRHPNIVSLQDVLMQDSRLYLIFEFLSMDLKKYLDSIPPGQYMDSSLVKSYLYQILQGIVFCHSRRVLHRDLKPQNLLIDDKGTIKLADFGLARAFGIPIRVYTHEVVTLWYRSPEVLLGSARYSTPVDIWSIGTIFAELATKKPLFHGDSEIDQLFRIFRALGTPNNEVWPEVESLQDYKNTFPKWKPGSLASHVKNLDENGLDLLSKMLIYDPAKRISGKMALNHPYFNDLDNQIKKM
# T3 sequence (P14635 whole entry partner): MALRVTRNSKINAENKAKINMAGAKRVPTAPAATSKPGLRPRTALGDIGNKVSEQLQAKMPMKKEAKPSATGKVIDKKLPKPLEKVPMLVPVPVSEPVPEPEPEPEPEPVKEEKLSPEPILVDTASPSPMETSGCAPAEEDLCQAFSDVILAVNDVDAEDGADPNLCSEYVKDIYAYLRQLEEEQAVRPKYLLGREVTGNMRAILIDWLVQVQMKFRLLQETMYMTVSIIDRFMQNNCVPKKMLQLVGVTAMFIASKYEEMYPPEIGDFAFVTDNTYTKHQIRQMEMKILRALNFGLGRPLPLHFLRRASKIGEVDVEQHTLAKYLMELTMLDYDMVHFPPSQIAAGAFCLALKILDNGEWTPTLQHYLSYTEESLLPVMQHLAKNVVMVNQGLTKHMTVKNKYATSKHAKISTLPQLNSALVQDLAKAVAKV
Compound,"IC50 [3, 10] [µM]","IC50 [4, 11] [µM]","IC50 [6, 13] [µM]","IC50 [3, 17] [µM]","IC50 [4, 18] [µM]","IC50 [6, 20] [µM]","IC50 [1, 8] [µM]","IC50 [2, 9] [µM]","IC50 [5, 12] [µM]","IC50 [7, 14] [µM]",also measured
"CN(C)CCCCN/C=C1\C(=O)NC(=O)c2ccc(Br)cc21 [Example 305, (Z)-6-Bromo-4-((4-(dimethylamino)butylamino)methylene)isoquinoline-1,3(2H,4H)-dione]",–,–,–,39.7,1.7,> 50,–,–,–,–,"IC50 [1, 15]: 21 µM; IC50 [2, 16]: 14 µM; IC50 [5, 19]: 23 µM; IC50 [7, 21]: 18 µM"
"C=CCN1CCCC1c1ccc(N/C=C2\C(=O)NC(=O)c3ccc(-c4ccsc4)cc32)cc1 (centres unmarked) [Example 420, 4-{[4-(1-Allyl-pyrrolidin-2-yl)-phenylamino]-methylene}-6-thiophen-3-yl-4H-isoquinoline-1,3-dione]",–,–,–,> 50,0.11,> 50,4,16.2,7.7,36.8,–
"CN(C)NC(=O)c1ccc(N/C=C2\C(=O)NC(=O)c3ccc(Br)cc32)cc1 [Example 280, 4-{[(Z)-(6-Bromo-1,3-dioxo-2,3-dihydroisoquinolin-4(1H)-ylidene)methyl]amino}-N′,N′-dimethylbenzohydrazide]",–,–,–,4.5,29,> 50,–,–,–,–,"IC50 [1, 15]: 21 µM; IC50 [2, 16]: 32 µM; IC50 [5, 19]: 28 µM; IC50 [7, 21]: 17 µM"
"CN1CCCC1c1ccc(N/C=C2\C(=O)NC(=O)c3ccc(-c4ccoc4)cc32)cc1 (centres unmarked) [Example 451, 6-Furan-3-yl-4-{[4-(1-methyl-pyrrolidin-2-yl)-phenylamino]-methylene}-4H-isoquinoline-1,3-dione]",–,–,–,> 50,0.06,> 50,2.8,2.5,1,1,–
"CC(=O)Oc1cc(CN/C=C2\C(=O)NC(=O)c3ccc(Br)cc32)cc2c1OC(C)(C)O2 [Example 872, 6-({[(Z)-(6-Bromo-1,3-dioxo-2,3-dihydroisoquinolin-4(1H)-ylidene)methyl]amino}methyl)-2,2-dimethyl-1,3-benzodioxol-4-yl acetate]",–,–,–,–,–,–,28.6,47.1,> 50,34.8,"IC50 ([3]; In Vitro Enzyme Assay, read-out: CDK2 IC50): 23.6 µM; IC50 ([4]; In Vitro Enzyme Assay, read-out: CDK4 IC50): 34.7 µM; IC50 ([6]; In Vitro Enzyme Assay, read-out: CDK1 IC50): 1.2 µM"
"CCCOc1ccc(CN/C=C2\C(=O)NC(=O)c3ccc(Br)cc32)cc1O [Example 130, (4Z)-6-Bromo-4-{[(3-hydroxy-4-propoxybenzyl)amino]methylene}isoquinoline-1,3(2H,4H)-dione]",–,–,–,34.5,0.35,42.5,–,–,–,–,"IC50 [1, 15]: 0.73 µM; IC50 [2, 16]: 0.94 µM; IC50 [5, 19]: 0.65 µM; IC50 [7, 21]: 4 µM"
"O=C1NC(=O)c2ccc(I)cc2/C1=C/Nc1ccc(N2CCN(CC3CC3)CC2)cc1 [Example 391, (4Z)-4-[({4-[4-(Cyclopropylmethyl)piperazin-1-yl]phenyl}amino)methylene]-6-iodoisoquinoline-1,3(2H,4H)-dione]",–,–,–,> 50,0.5,> 50,2.4,7.3,3,2.6,–
"6-Bromo-4-{[4-(4-methyl-piperazin-1-yl)-phenylamino]-methylene}-1,4-dihydro-2H-isoquinolin-3-one & 8-Bromo-4-{[4-(4-methyl-piperazin-1-yl)-phenylamino]-methylene}-1,4-dihydro-2H-isoquinolin-3-one [Example 845]",> 50,2.3,> 50,–,–,–,–,–,–,–,"IC50 ([1]; 3 days): 4.2 µM; IC50 ([2]; 3 days): 2.5 µM; IC50 ([5]; BT474 cells, 6 days, SRB; read-out: In Vitro Cellular Activity IC50 BT474): 7.5 µM; IC50 ([7]; 3 days): 4.5 µM"
"COc1ccc(CN/C=C2\C(=O)NC(=O)c3ccccc32)cc1O [Example 98, (4Z)-4-{[(3-Hydroxy-4-methoxybenzyl)amino]methylene}isoquinoline-1,3(2H,4H)-dione]",–,–,–,7.1,–,> 50,–,–,–,–,"IC50 [1, 15]: 17.9 µM; IC50 [2, 16]: 19.3 µM; IC50 ([4]; CDK4 IC50, In Vitro Enzyme Assays, 200 μM ATP): 0.21 µM; IC50 [5, 19]: 16.8 µM; IC50 [7, 21]: 24.1 µM"
"C=CCN1CCCC1c1ccc(N/C=C2\C(=O)NC(=O)c3ccc(I)cc32)cc1 (centres unmarked) [Example 419, 4-{[4-(1-Allyl-pyrrolidin-2-yl)-phenylamino]-methylene}-6-iodo-4H-isoquinoline-1,3-dione]",–,–,–,31,0.77,> 50,7,12,12.9,7.6,–
"O=C1NC(=O)c2ccc(I)cc2/C1=C/Nc1ccc(N2CCN(CCO)CC2)cc1 [Example 401, (4Z)-4-[({4-[4-(2-Hydroxyethyl)piperazin-1-yl]phenyl}amino)methylene]-6-iodoisoquinoline-1,3(2H,4H)-dione]",–,–,–,> 50,0.47,23.1,2.6,6.7,4.45,5.1,–

# Now from value to compound, other results behind:
"IC50 [3, 10] [µM]","IC50 [4, 11] [µM]","IC50 [6, 13] [µM]","IC50 [3, 17] [µM]","IC50 [4, 18] [µM]","IC50 [6, 20] [µM]",Compound,"IC50 [1, 8] [µM]","IC50 [2, 9] [µM]","IC50 [5, 12] [µM]","IC50 [7, 14] [µM]",also measured
5,< 0.005,20.2,–,–,–,"COc1ccc(CNC=C2C(=O)NC(=O)c3ccc(C=Cn4ccnc4)cc32)cc1O [Example 734, 4-[(3-Hydroxy-4-methoxy-benzylamino)-methylene]-6-(2-imidazol-1-yl-vinyl)-4H-isoquinoline-1,3-dione]",11.9,2.5,9.9,6.7,–
0.5,0.02,2.1,–,–,–,"CN(C)CC(=O)Nc1ccc(CN/C=C2\C(=O)NC(=O)c3ccc(I)cc32)cc1O [Example 526, N^1-[2-Hydroxy-4-({[(Z)-(6-iodo-1,3-dioxo-2,3-dihydroisoquinolin-4(1H)-ylidene)methyl]amino}methyl)phenyl]-N^2,N^2-dimethylglycinamide]",2.4,5.6,7.2,3.3,–
23.6,0.15,45.5,–,–,–,"O=C1NC(=O)c2ccc(-c3ccc[nH]3)cc2C1=CNc1ccc(CN2CCCC2)cc1 [Example 838, 4-[(4-Pyrrolidin-1-ylmethyl-phenylamino)-methylene]-6-(1H-pyrrol-2-yl)-4H-isoquinoline-1,3-dione]",7.2,17.2,23.5,8.2,–
> 50,0.23,> 50,–,–,–,"CN1CCN(c2ccc(NC=C3C(=O)NC(=O)c4ccc(C=Cn5ccnc5)cc43)cc2)CC1 [Example 680, 6-(2-Imidazol-1-yl-vinyl)-4-{[4-(4-methyl-piperazin-1-yl)-phenylamino]-methylene}-4H-isoquinoline-1,3-dione]",5.9,4.7,15.2,6.9,–
> 50,1.16,14.4,–,–,–,"CN1CCN(c2ccc(NC=C3C(=O)NC(=O)c4ccc(C=Cc5cnccn5)cc43)cc2)CC1 [Example 678, 4-{[4-(4-Methyl-piperazin-1-yl)-phenylamino]-methylene}-6-(2-pyrazin-2-yl-vinyl)-4H-isoquinoline-1,3-dione]",3.5,6.1,9.1,10.5,–
1.3,0.07,1,–,–,–,"CN1CCN(c2ccc(NC=C3C(=O)NC(=O)c4ccc(C=Cc5ccc(S(N)(=O)=O)cc5)cc43)cc2)CC1 [Example 728, 4-[2-(4-{[4-(4-Methyl-piperazin-1-yl)-phenylamino]-methylene}-1,3-dioxo-1,2,3,4-tetrahydro-isoquinolin-6-yl)-vinyl]-benzenesulfonamide]",29.1,> 50,> 50,> 50,–
